pEC50: −log10 of the molar value.
Key:
[1] = target: T1, pig TRPM8 (Sus scrofa, UniProt F1SM15); assay: In vitro pig TRPM8 fluorescence calcium flux assay (recombinant CHO cells, Fluo4-AM, FDSS6000); type: cell-based; details: recombinant CHO cells expressing pig TRPM8; menthol-related EC50, normalized to 100 μM menthol
T1 construct: expressed in transfected cells; host or cells: CHO (pcDNA5/FRT/TO vector; hygromycin B and blasticidin selection)
Description: (§1) In Vitro Pig and Human TRPM8 Fluorescence Calcium Flux Assays
(§2) For functional expression of TRPM8, the full-length cDNA encoding human (NM_024080) and pig (XM_001927892.1) TRPM8 sequences were subcloned into p658 and pcDNA5/FRT/TO mammalian expression vectors, respectively. Engineered recombinant CHO cell lines expressing human or pig TRPM8 were generated. Culture media was Ham-F12 with 10% FCS for both lines, and for the pig cell line only 400 μg/ml hygromycin B and 30 μg/mL blasticidin were added as selection antibiotics (all reagents were obtained from Invitrogen, Fisher Scientific). Cells were grown in culture flasks up to 80% confluence where they were harvested using accutase (Sigma, MO, USA) to detach the cells by enzymatic dissociation and either seeded directly into assay plates or cryopreserved for future use.
(§3) For calcium flux assays, cells were plated into clear base poly-D-lysine coated 384-well plates (BD Biosciences, NJ USA) at a density of 15,000 cells per well in appropriate culture medium and grown overnight. The following day, all medium was removed then the cells were incubated with 2 μM of Fluo4-AM Dye (Molecular Probes) prepared in complete HBSS assay buffer containing 20 mM HEPES, 0.1% BSA, and 2.5 mM probenecid at room temperature for one hour. Following incubation, plates were inserted into a FDSS6000 instrument (Hamamatsu, Photonics, Japan) instrument, where cells were challenged with compounds of the formula (at varying concentrations) and intracellular calcium was measured kinetically for 3 min after addition.
(§4) This protocol allowed the determination of an EC50 value, from the sixteen-point dose response data, for each compound of the formula tested. Maximal fluorescence intensity achieved upon addition of 100 μM menthol (stock solution prepared in ethanol from solid, Sigma-Aldrich) was exported from the FDSS and further analyzed using IDBS XLFit 5. Data were normalized to the average 100 μM menthol response (maximum control wells) included in each plate. The dose response curves from the average of wells for each data point were analyzed by using nonlinear regression of sigmoidal dose response (formula 205). Finally, the (menthol-related) EC50 values (Half maximal effective concentration) were calculated with the best-fit dose curve determined by IDBS XLFit 5 software.

[2] = target: T2, human TRPM8 (Homo sapiens, UniProt Q7Z2W7); assay: In vitro human TRPM8 fluorescence calcium flux assay (recombinant CHO cells, Fluo4-AM, FDSS6000); type: cell-based; details: recombinant CHO cells expressing human TRPM8; menthol-related EC50, normalized to 100 μM menthol
T2 construct: expressed in transfected cells; host or cells: CHO (p658 mammalian expression vector)
Description: as §1, §2, §3, §4

T2 sequence (Q7Z2W7 whole entry): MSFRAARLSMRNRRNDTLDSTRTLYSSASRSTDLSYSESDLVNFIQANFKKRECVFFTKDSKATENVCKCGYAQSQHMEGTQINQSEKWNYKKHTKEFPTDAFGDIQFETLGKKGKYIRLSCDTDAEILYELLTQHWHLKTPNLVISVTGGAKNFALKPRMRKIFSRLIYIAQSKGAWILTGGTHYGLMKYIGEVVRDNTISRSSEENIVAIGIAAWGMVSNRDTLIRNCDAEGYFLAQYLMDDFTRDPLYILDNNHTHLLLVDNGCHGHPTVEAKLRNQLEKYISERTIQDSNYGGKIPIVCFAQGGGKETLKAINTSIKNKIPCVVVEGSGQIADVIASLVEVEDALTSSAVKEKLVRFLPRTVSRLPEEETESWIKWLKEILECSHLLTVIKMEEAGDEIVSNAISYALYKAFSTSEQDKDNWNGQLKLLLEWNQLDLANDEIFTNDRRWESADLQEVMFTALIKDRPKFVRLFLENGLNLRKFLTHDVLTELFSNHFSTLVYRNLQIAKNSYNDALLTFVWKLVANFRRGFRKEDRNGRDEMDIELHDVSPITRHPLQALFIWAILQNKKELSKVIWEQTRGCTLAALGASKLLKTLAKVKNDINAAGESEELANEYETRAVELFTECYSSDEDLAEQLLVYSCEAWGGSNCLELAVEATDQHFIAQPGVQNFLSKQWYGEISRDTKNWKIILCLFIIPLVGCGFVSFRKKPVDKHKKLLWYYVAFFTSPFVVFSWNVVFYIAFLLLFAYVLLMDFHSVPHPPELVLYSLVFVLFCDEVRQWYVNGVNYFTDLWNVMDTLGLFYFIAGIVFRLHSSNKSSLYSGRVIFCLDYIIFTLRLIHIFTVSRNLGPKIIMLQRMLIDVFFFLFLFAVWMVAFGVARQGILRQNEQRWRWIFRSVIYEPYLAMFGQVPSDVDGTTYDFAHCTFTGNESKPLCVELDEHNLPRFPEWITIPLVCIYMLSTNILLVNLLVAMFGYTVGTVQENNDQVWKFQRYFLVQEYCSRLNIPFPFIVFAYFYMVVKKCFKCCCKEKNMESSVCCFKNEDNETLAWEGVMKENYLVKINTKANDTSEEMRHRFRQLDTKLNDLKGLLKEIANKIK
T1 sequence (F1SM15 1-1104): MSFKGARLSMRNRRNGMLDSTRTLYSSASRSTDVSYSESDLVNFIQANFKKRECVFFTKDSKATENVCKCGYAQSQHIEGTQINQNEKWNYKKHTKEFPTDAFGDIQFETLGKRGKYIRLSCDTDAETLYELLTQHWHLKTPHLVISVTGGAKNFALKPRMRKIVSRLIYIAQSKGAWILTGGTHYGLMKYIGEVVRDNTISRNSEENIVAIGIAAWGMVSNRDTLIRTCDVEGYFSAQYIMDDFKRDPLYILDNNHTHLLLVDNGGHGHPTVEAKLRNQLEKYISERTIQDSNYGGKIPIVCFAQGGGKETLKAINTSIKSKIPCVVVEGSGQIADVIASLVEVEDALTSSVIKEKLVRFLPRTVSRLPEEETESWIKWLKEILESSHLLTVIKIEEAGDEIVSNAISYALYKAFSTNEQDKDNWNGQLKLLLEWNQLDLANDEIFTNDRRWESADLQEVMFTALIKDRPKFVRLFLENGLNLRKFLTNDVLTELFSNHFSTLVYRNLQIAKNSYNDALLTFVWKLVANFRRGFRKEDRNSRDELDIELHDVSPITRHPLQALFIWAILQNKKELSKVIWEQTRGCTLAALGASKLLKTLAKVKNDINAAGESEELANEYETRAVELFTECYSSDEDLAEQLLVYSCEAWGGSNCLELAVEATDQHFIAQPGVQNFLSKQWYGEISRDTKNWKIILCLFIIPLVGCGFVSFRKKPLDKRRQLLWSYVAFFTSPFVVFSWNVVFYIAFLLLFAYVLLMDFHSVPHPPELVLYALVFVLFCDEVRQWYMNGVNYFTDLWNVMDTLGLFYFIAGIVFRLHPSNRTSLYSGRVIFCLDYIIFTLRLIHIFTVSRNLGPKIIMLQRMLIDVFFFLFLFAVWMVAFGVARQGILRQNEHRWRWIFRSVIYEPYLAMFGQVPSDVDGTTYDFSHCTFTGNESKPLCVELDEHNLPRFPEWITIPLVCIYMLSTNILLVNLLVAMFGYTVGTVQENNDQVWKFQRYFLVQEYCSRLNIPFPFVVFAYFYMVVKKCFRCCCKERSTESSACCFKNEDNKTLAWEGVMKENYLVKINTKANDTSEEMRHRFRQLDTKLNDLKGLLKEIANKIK

pEC50 [1] | pEC50 [2] | Compound
6.96 | 7.08 | COC(=O)CCOc1ccccc1CCNC(=O)[C@]1(O)C[C@H](C)CC[C@H]1C(C)C [Example 75, methyl 3-(2-(2-((1S,2S,5R)-1-hydroxy-2-isopropyl-5-methylcyclohexane-1-carboxamido)ethyl)phenoxy)propanoate]
6.67 | 6.52 | COc1ccc(OC)c(CCNC(=O)[C@]2(O)C[C@H](C)CC[C@H]2C(C)C)c1 [Example 128, (1S,2S,5R)-N-[2-(2,5-dimethoxyphenyl)ethyl]-1-hydroxy-2-isopropyl-5-methyl-cyclohexanecarboxamide]
8.47 | 8.44 | CC(C)[C@@H]1CC[C@@H](C)C[C@@]1(O)C(=O)NCC1(O)CCCc2ccccc21 (mixture of isomers) [Example 177, (1S,2S,5R)-1-hydroxy-N-(((1RS)-hydroxy-1,2,3,4-tetrahydronaphthalen-1-yl)methyl)-2-isopropyl-5-methylcyclohexane-1-carboxamide]
8.70 | 8.52 | Cc1cccc(C(O)CNC(=O)[C@]2(O)C[C@H](C)CC[C@H]2C(C)C)c1 (stereo partly drawn) [Example 12, (1S,2S,5R)-1-hydroxy-N-(2-hydroxy-2-(m-tolyl)ethyl)-2-isopropyl-5-methylcyclohexane-1-carboxamide]
7.82 | 7.78 | CC(C)[C@@H]1CC[C@@H](C)C[C@@]1(O)C(=O)NCCc1ccc(O)c([N+](=O)[O-])c1 [Example 166, (1S,2S,5R)-1-hydroxy-N-[2-(4-hydroxy-3-nitro-phenyl)ethyl]-2-isopropyl-5-methyl-cyclohexanecarboxamide]
6.46 | 6.48 | CC(C)[C@@H]1CC[C@@H](C)C[C@@]1(O)C(=O)N[C@@H](C)CCc1ccc(O)cc1 [Example 168, (1S,2S,5R)-1-hydroxy-N-[(1S)-3-(4-hydroxyphenyl)-1-methyl-propyl]-2-isopropyl-5-methyl-cyclohexanecarboxamide]
6.14 | 6.45 | COC(=O)CC(CNC(=O)[C@]1(O)C[C@H](C)CC[C@H]1C(C)C)c1ccccc1 (stereo partly drawn) [Example 65, methyl 4-((1S,2S,5R)-1-hydroxy-2-isopropyl-5-methylcyclohexane-1-carboxamido)-3-phenyl butanoate]
7.04 | 7.23 | CC(C)[C@@H]1CC[C@@H](C)C[C@@]1(O)C(=O)NCCCc1ccc(O)cc1 [Example 167, (1S,2S,5R)-1-hydroxy-N-[3-(4-hydroxyphenyl)propyl]-2-isopropyl-5-methyl-cyclohexanecarboxamide]
7.16 | 7.38 | CC(C)[C@@H]1CC[C@@H](C)C[C@@]1(O)C(=O)NCC(=O)c1ccc(O)cc1O [Example 102, (1S,2S,5R)—N-(2-(2,4-dihydroxyphenyl)-2-oxoethyl)-1-hydroxy-2-isopropyl-5-methylcyclohexane-1-carboxamide]
8.89 | 8.96 | CC(C)[C@@H]1CC[C@@H](C)C[C@@]1(O)C(=O)NCC1(O)CCc2ccccc21 (single isomer, unassigned) [Example 176]
6.44 | 6.30 | CC(C)[C@@H]1CC[C@@H](C)C[C@@]1(O)C(=O)NCC(=O)Oc1cc(O)cc(O)c1 [Example 76, 3,5-dihydroxyphenyl ((1S,2S,5R)-1-hydroxy-2-isopropyl-5-methylcyclohexane-1-carbonyl)glycinate]
6.29 | 6.05 | CC(C)[C@@H]1CC[C@@H](C)C[C@@]1(O)C(=O)NCc1cccc(CO)c1 [Example 161, (1S,2S,5R)-1-hydroxy-N-[[3-(hydroxymethyl)phenyl]methyl]-2-isopropyl-5-methyl-cyclohexanecarboxamide]
7.74 | 7.31 | Cc1cccc([C@@H](O)CNC(=O)[C@]2(O)C[C@H](C)CC[C@H]2C(C)C)c1 [Example 45, (1S,2S,5R)-1-hydroxy-N-((2R)-hydroxy-2-(m-tolyl)ethyl)-2-isopropyl-5-methylcyclohexane-1-carboxamide]
7.03 | 7.05 | COC(=O)Cc1ccccc1CCNC(=O)[C@]1(O)C[C@H](C)CC[C@H]1C(C)C [Example 77, methyl 2-(2-(2-((1S,2S,5R)-1-hydroxy-2-isopropyl-5-methylcyclohexane-1-carboxamido)ethyl)phenyl)acetate]
7.00 | 6.96 | COc1ccc(C(=O)CNC(=O)[C@]2(O)C[C@H](C)CC[C@H]2C(C)C)c(OC)c1 [Example 99, (1S,2S,5R)—N-(2-(2,4-dimethoxyphenyl)-2-oxoethyl)-1-hydroxy-2-isopropyl-5-methylcyclohexane-1-carboxamide]
8.40 | 8.40 | CC(C)[C@@H]1CC[C@@H](C)C[C@@]1(O)C(=O)NCC(=O)c1c[nH]c2ccccc12 [Example 150, (1S,2S,5R)-1-hydroxy-N-[2-(1H-indol-3-yl)-2-oxo-ethyl]-2-isopropyl-5-methyl-cyclohexanecarboxamide]
8.40 | 8.40 | CC(C)[C@@H]1CC[C@@H](C)C[C@@]1(O)C(=O)NCC(=O)c1sccc1Cl [Example 148, (1S,2S,5R)-N-[2-(3-chloro-2-thienyl)-2-oxo-ethyl]-1-hydroxy-2-isopropyl-5-methyl-cyclohexanecarboxamide]
6.73 | 6.36 | COc1cc(CCNC(=O)[C@]2(O)C[C@H](C)CC[C@H]2C(C)C)cc(OC)c1O [Example 130, (1S,2S,5R)-1-hydroxy-N-[2-(4-hydroxy-3,5-dimethoxy-phenyl)ethyl]-2-isopropyl-5-methyl-cyclohexanecarboxamide]
8.74 | 8.32 | CC(C)[C@@H]1CC[C@@H](C)C[C@@]1(O)C(=O)NCC1(O)CCc2c(Cl)cccc21 (stereo partly drawn) [Example 144, (1S,2S,5R)-N-[(4-chloro-1-hydroxy-indan-1-yl)methyl]-1-hydroxy-2-isopropyl-5-methyl-cyclohexanecarboxamide]
6.23 | 6.19 | CC(C)[C@@H]1CC[C@@H](C)C[C@@]1(O)C(=O)N[C@@H](CO)Cc1ccccc1 [Example 47, (1S,2S,5R)-1-hydroxy-N-((2R)-1-hydroxy-3-phenylpropan-2-yl)-2-isopropyl-5-methylcyclohexane-1-carboxamide]
7.12 | 6.89 | Cc1[nH]c2ccccc2c1CCNC(=O)[C@]1(O)C[C@H](C)CC[C@H]1C(C)C [Example 153, (1S,2S,5R)-1-hydroxy-2-isopropyl-5-methyl-N-[2-(2-methyl-1H-indol-3-yl)ethyl]cyclohexanecarboxamide]
7.59 | 7.03 | COc1ccc(CCNC(=O)[C@]2(O)C[C@H](C)CC[C@H]2C(C)C)cc1O [Example 126, (1S,2S,5R)-1-hydroxy-N-[2-(3-hydroxy-4-methoxy-phenyl)ethyl]-2-isopropyl-5-methyl-cyclohexanecarboxamide]
8.64 | 8.39 | [2H]C(O)(CNC(=O)[C@]1(O)C[C@H](C)CC[C@H]1C(C)C)c1ccccc1 (single isomer, unassigned) [Example 92]
7.10 | 6.52 | CC(C)[C@@H]1CC[C@@H](C)C[C@@]1(O)C(=O)NCC(=O)OCc1ccccc1 [Example 132, benzyl 2-[[(1S,2S,5R)-1-hydroxy-2-isopropyl-5-methyl-cyclohexanecarbonyl]amino]acetate]
7.17 | 6.96 | COCCOCCOCCOc1cccc(CCNC(=O)[C@]2(O)C[C@H](C)CC[C@H]2C(C)C)c1 [Example 185, (1S,2S,5R)-1-hydroxy-2-isopropyl-N-[2-[3-[2-[2-(2-methoxyethoxy)ethoxy]ethoxy]phenyl]ethyl]-5-methyl-cyclohexanecarboxamide]
8.28 | 7.72 | [2H]C(O)(CNC(=O)[C@]1(O)C[C@H](C)CC[C@H]1C(C)C)c1ccccc1 (single isomer, unassigned) [Example 91]
6.57 | 6.22 | CC(C)[C@@H]1CC[C@@H](C)C[C@@]1(O)C(=O)NCCc1cnccn1 [Example 131, (1S,2S,5R)-1-hydroxy-2-isopropyl-5-methyl-N-(2-pyrazin-2-ylethyl)cyclohexanecarboxamide]
6.13 | 5.12 | COC[C@H](NC(=O)[C@]1(O)C[C@H](C)CC[C@H]1C(C)C)C(O)c1ccccc1 (stereo in doubt) [Example 122, (1S,2S,5R)-1-hydroxy-N-[(1S,2S)-2-hydroxy-1-(methoxymethyl)-2-phenyl-ethyl]-2-isopropyl-5-methyl-cyclohexanecarboxamide]
